Earlier results as cited in US8282955B2, “Method for the preparation of a pharmaceutical composition comprising 5-aminosalicylic acid for use in treatment of ulcerative colitis and Crohn's disease” (Ferring B.V., priority 2001, dated 2012).

Conditions: moisture and light

Question: For `Nc1ccc(O)c(C(=O)O)c1` [Batch 5-ASA, 5-aminosalicylic acid], which Stability is on record?
Answer: poor stability
